Measurements published in PMC6476926, “Dichloro-Phenyl-Benzotriazoles: A New Selective Class of Human Respiratory Syncytial Virus Entry Inhibitors” (Frontiers in Chemistry, 2019).

Columns and labels:
in vitro = details: cattle (Bos taurus)
YFV = test: microbe, parasite or virus in culture; type: cell-based; details: Yellow fever virus, BHK, read-out: EC50 YFV
Reo-1 = test: microbe, parasite or virus in culture; type: cell-based, Reovirus type-1 (Reo-1); details: Reovirus sp., BHK, read-out: EC50 Reo-1
[1] = Cytotoxicity, MTT method, Vero-76 cells; details: African green monkey (Cercopithecus aethiops)
HIV-1IIIB = test: microbe, parasite or virus in culture; type: cell-based, Human Immunodeficiency Virus type-1 (HIV-1); details: Human immunodeficiency virus 1, MT4, read-out: EC50 HIV-1IIIB
CV-B5 = test: microbe, parasite or virus in culture; type: cell-based, Human Enterovirus B [coxsackie type B5 (CV-B5)]; details: Enterovirus B, CVB5, Vero 76, read-out: EC50 CV-B5
[2] = Cytotoxicity, MTT method, BHK cells; details: Syrian hamster (Mesocricetus auratus)
BVDV = test: microbe, parasite or virus in culture; type: cell-based; details: Bovine viral diarrhea virus isolates and strains, MDBK, read-out: EC50 BVDV
Sb-1, VSV, VV, HSV-1 = test: organism not typed; type: cell-based; details: Vero 76, read-out: EC50 Sb-1, VSV, VV, HSV-1
RSV = test: microbe, parasite or virus in culture; type: cell-based, Human Respiratory Syncytial Virus (RSV) strain A2; details: human respiratory syncytial virus, Vero 76, read-out: EC50 RSV
[3] = Cytotoxicity, MTT method, MT-4 cells; details: human

Compound	CC50 (in vitro)	EC50 (YFV)	EC50 (Reo-1)	CC50 at 5 days [1]	melting point	EC50 (HIV-1IIIB)	EC50 (CV-B5)	CC50 [2]	EC50 (BVDV)	EC50 (Sb-1, VSV, VV, HSV-1)	EC50 (RSV)	CC50 [3]	CC50 ([2]; BHK cells (BHK-21, mock-infected))	CC50 ([3]; MT-4 cells (mock-infected))
CCCC(=O)Nc1ccc(-n2nc3cc(Cl)c(Cl)cc3n2)cc1 [6c, N-[4-(5,6-dichloro-2H-benzo[d][1,2,3]triazol-2-yl)phenyl]butanamide]	> 100 µM	> 100 µM	> 100 µM	> 100 µM	243 to 245 °C	> 100 µM	> 100 µM	> 100 µM	> 100 µM	> 100 µM	> 100 µM	> 100 µM		
COc1ccc(C(=O)Nc2ccc(-n3nc4cc(Cl)c(Cl)cc4n3)cc2)cc1 [8c, N-[4-(5,6-dichloro-2H-benzo[d][1,2,3]triazol-2-yl)phenyl]-4-methoxybenzamide]	> 100 µM	> 100 µM	> 100 µM	> 100 µM	274 to 276 °C	> 100 µM	14 µM		> 100 µM	> 100 µM	> 100 µM		> 100 µM	> 100 µM
O=C(Nc1ccccc1)Nc1ccc(-n2nc3cc(Cl)c(Cl)cc3n2)cc1 [10e, 1-[4-(5,6-dichloro-2H-benzo[d][1,2,3]triazol-2-yl)phenyl]-3-phenylurea]	> 100 µM	> 100 µM	> 100 µM	> 100 µM	> 290 °C	> 100 µM	> 100 µM	> 100 µM	> 100 µM	> 100 µM	> 100 µM	> 100 µM		
O=C(Nc1ccc(Cl)cc1)Nc1ccc(-n2nc3cc(Cl)c(Cl)cc3n2)cc1 [10h, 1-[4-(5,6-dichloro-2H-benzo[d][1,2,3]triazol-2-yl)phenyl]-3-(4-chlorophenyl)urea]	> 100 µM	> 100 µM	> 100 µM	> 100 µM	> 290 °C	> 100 µM	> 100 µM	> 100 µM	> 100 µM	> 100 µM	> 100 µM	> 100 µM		
COc1cc(C(=O)Nc2ccc(-n3nnc4cc(Cl)c(Cl)cc43)cc2)cc(OC)c1OC [7d, N-[4-(5,6-dichloro-1H-benzo[d][1,2,3]triazol-1-yl)phenyl]-3,4,5-trimethoxybenzamide]	> 100 µM	78 µM	> 100 µM	90 µM	212 to 213 °C	> 77 µM	> 90 µM	> 100 µM	> 100 µM	> 90 µM	5 µM	77 µM		
COc1ccc(NC(=O)Nc2ccc(-n3nc4cc(Cl)c(Cl)cc4n3)cc2)cc1 [10g, 1-[4-(5,6-dichloro-2H-benzo[d][1,2,3]triazol-2-yl)phenyl]-3-(4-methoxyphenyl)urea]	> 100 µM	> 100 µM	> 100 µM	> 100 µM	> 290 °C	> 100 µM	> 100 µM	> 100 µM	> 100 µM	> 100 µM	> 100 µM	> 100 µM		
CCC(=O)N(C(=O)CC)c1ccc(-n2nc3cc(Cl)c(Cl)cc3n2)cc1 [6e, N-propionyl-N-[4-(5,6-dichloro-2H-benzo[d][1,2,3]triazol-2-yl)phenyl] propionamide]	72 µM	> 26 µM	> 26 µM	> 100 µM	238 to 240 °C	> 15 µM	61 µM	26 µM	> 72 µM	> 100 µM	6 µM	15 µM		
O=C(Nc1ccc(-n2nc3cc(Cl)c(Cl)cc3n2)cc1)c1ccccc1 [8a, N-[4-(5,6-dichloro-2H-benzo[d][1,2,3]triazol-2-yl)phenyl]benzamide]	> 100 µM	> 100 µM	> 100 µM	> 100 µM	> 290 °C	> 100 µM	> 100 µM	> 100 µM	> 100 µM	> 100 µM	> 100 µM	> 100 µM		
O=C(Nc1ccc(-n2nnc3cc(Cl)c(Cl)cc32)cc1)c1ccc(C(F)(F)F)cc1 [7g, N-[4-(5,6-dichloro-1H-benzo[d][1,2,3]triazol-1-yl)phenyl]-4-(trifluoromethyl)benzamide]	> 100 µM	> 100 µM	> 100 µM	9 µM	> 290 °C	> 100 µM	> 90 µM	> 100 µM	> 100 µM	> 90 µM	5 µM	> 100 µM		
CCCC(=O)N(C(=O)CCC)c1ccc(-n2nnc3cc(Cl)c(Cl)cc32)cc1 [5d, N-butyryl-N-[4-(5,6-dichloro-1H-benzo[d][1,2,3]triazol-1-yl)phenyl] butyramide]	14 µM	> 16 µM	> 16 µM	20 µM	202 to 204 °C	> 35 µM	> 20 µM	16 µM	> 14 µM	> 20 µM	> 30 µM	35 µM		
CCC(=O)Nc1ccc(-n2nc3cc(Cl)c(Cl)cc3n2)cc1 [6b, N-[4-(5,6-dichloro-2H-benzo[d][1,2,3]triazol-2-yl)phenyl]propanamide]	> 100 µM	> 100 µM	> 100 µM	> 100 µM	258 to 260 °C	> 100 µM	> 100 µM	> 100 µM	> 100 µM	> 100 µM	> 100 µM	> 100 µM		
O=C(Nc1ccc(-n2nnc3cc(Cl)c(Cl)cc32)cc1)c1ccc(Cl)cc1 [7f, N-[4-(5,6-dichloro-1H-benzo[d][1,2,3]triazol-1-yl)phenyl] 4-chlorobenzamide]	> 100 µM	> 84 µM	> 84 µM	> 100 µM	234 to 236 °C	> 100 µM	> 100 µM	84 µM	> 100 µM	> 100 µM	8 µM	> 100 µM		
CCCC(=O)Nc1ccc(-n2nnc3cc(Cl)c(Cl)cc32)cc1 [5c, N-[4-(5,6-dichloro-1H-benzo[d][1,2,3]triazol-1-yl)phenyl]butanamide]	> 100 µM	> 100 µM	> 100 µM	10 µM	202 to 204 °C	> 60 µM	9 µM	> 100 µM	> 100 µM	> 100 µM	4 µM	60 µM		
